The source of these data is paper PMC9050923, “6,N^2-Diaryl-1,3,5-triazine-2,4-diamines: synthesis, antiproliferative activity and 3D-QSAR modeling” (RSC Advances, 2020).

In general, viability refers to the share of living cells, or the viability signal relative to a control.

What all share (format): cell-based
Experiment [1] relates to MCF-7. In words: MTT assay, MCF-7 breast cancer cells. To be noted: Homo sapiens, MCF7, 10 μM, 72 h after the treatment, mean of three independent experiments, read-out: Percentage of cell viability MCF-7. The protocol: (§1) The prepared compounds 1–126 were tested on three breast cancer cell lines namely, MDA-MB231, SKBR-3 and MCF-7 using MTT assay. SKBR-3 and MCF-7 cell lines are estrogen and progesterone hormone positive cell lines often used as a model for the hormone therapy.[18] MDA-MB231 is triple negative breast cancer cell line, which is negative to estrogen and progesterone receptors and human epidermal growth factor receptor 2, a perfect model for chemotherapy.[18] Initially, all the prepared compounds 1–126 were tested on these three cancer cell lines at the screening concentration (10 μM) and percentage of cell viability was calculated 72 h after the treatment (Table 1).
(§2) The growth inhibitory effect of the compounds was determined on breast tumor cell line (MDA-MB231, SKBR-3 and MCF-7) at different concentrations with methotrexate and nilotinib as positive controls (Table 2).
(§3) The cytotoxic activity of 6,N^2-diaryl-1,3,5-triazine-2,4-diamines (1–126) was evaluated against three breast carcinoma cell lines (MDA-MB231, SKBR-3, and MCF-7) and normal breast cell line (MCF-10A) by MTT assay.[22] All cells were obtained from the American Type Culture Collection and were grown in 10% fetal bovine serum and 1% pen-strep antibiotic supplemented media (DMEM for MDA-MB231 and SKBR-3, RPMI for MCF-7, and MEGM for MCF-10A). For MTT assay, 20 000 to 75 000 cells per mL (based on the doubling time for each cell line) were seeded in 96 well plates and incubated for 24 h at 37 °C in 5% CO2 incubator. Then, compounds at different concentrations were added followed by the incubation at 37 °C for 72 h. After that, MTT solution (0.5 mg mL^−1) was added and the plates were incubated for another 4 h. The supernatant was then discarded and 100 μL of DMSO was added to each well. The plates were then read by Tecan NanoQuant (model: infinite m200 pro) plate reader and absorbance was measured at 570 nm. GI50 values were calculated using sigmoidal concentration–response curves (see ESI ^†) generated using the GraphPad Prism 7 program. Three independent experiments were carried out and the data were represented as mean of the three experiments.

Experiment [2] relates to SKBR-3. Put plainly: MTT assay, SKBR-3 breast cancer cells. To be noted: Homo sapiens, SK-BR-3; 10 μM, 72 h after the treatment, MTT, mean of three independent experiments; read-out: Percentage of cell viability SKBR-3. The protocol:
as §1, §2, §3

Experiment [3] deals with MDA-MB231. In words: MTT assay, MDA-MB231 breast cancer cells. To be noted: Homo sapiens, MDA-MB-231; 10 μM, 72 h after the treatment, MTT, mean of three independent experiments; read-out: Percentage of cell viability MDA-MB231. On the procedure: as §1, §2, §3

Consider `Nc1nc(Nc2cccc(Cl)c2)nc(-c2ccc(F)cc2)n1` [Compound 25], for which the viability at 10 µM in experiment [1] amounted to 95%; in experiment [2] it was 88%; in experiment [3], 73%.

`Nc1nc(Nc2ccc(Cl)cc2)nc(-c2ccc(F)cc2)n1` [Compound 26]: the viability at 10 µM in experiment [1] worked out at 87%; in experiment [2], 98%; in experiment [3], 67%.

On to `Nc1nc(Nc2ccc(Br)cc2)nc(-c2ccc(F)cc2)n1` [Compound 27], for which the viability at 10 µM in experiment [1] is 94%; in experiment [2] it was 100%; in experiment [3], 96%.

On to `Cc1ccc(Nc2nc(N)nc(-c3ccc(F)cc3)n2)cc1` [Compound 28], for which the viability at 10 µM in experiment [1] amounted to 88%; in experiment [2], 90%; in experiment [3], 99%.

Take `COc1ccccc1Nc1nc(N)nc(-c2ccc(F)cc2)n1` [Compound 29]: the viability at 10 µM in experiment [1] was 96%; in experiment [2], 81%; in experiment [3], 60%.

As for `Nc1nc(Nc2ccc(OC(F)(F)F)cc2)nc(-c2ccc(F)cc2)n1` [Compound 31], the values for the viability at 10 µM in experiment [1], in experiment [2] and in experiment [3] were 87%, 92% and 88%, respectively.

Regarding `CC(C)c1ccc(Nc2nc(N)nc(-c3ccc(F)cc3)n2)cc1` [Compound 32], the viability at 10 µM was determined as 84% in experiment [1], 100% in experiment [2] and 94% in experiment [3].

`Nc1nc(Nc2cccnc2)nc(-c2ccc(F)cc2)n1` [Compound 33]: the viability at 10 µM in experiment [1] worked out at 85%; in experiment [2], 87%; in experiment [3], 74%.

`Nc1nc(Nc2ccccc2F)nc(-c2ccc(Cl)cc2)n1` [Compound 35]: the viability at 10 µM in experiment [1] came out at 93%; in experiment [2], 99%; in experiment [3], 82%.

With `Nc1nc(Nc2ccccc2Cl)nc(-c2ccc(Cl)cc2)n1` [Compound 37], the figures for the viability at 10 µM in experiment [1], in experiment [2] and in experiment [3] were 99%, 89% and 99%, respectively.

Take `Nc1nc(Nc2cccc(Cl)c2)nc(-c2ccc(Cl)cc2)n1` [Compound 38]: the figures for the viability at 10 µM in experiment [1], in experiment [2] and in experiment [3] were 84%, 92% and 99%, respectively.

For `Nc1nc(Nc2ccc(Cl)cc2)nc(-c2ccc(Cl)cc2)n1` [Compound 39], the viability at 10 µM is 100% in experiment [1], 100% in experiment [2] and 97% in experiment [3].

On to `Nc1nc(Nc2ccc(Br)cc2)nc(-c2ccc(Cl)cc2)n1` [Compound 40], for which the viability at 10 µM in experiment [1] was determined as 92%; in experiment [2] it was 100%; in experiment [3], 80%.

Consider `COc1ccccc1Nc1nc(N)nc(-c2ccc(Cl)cc2)n1` [Compound 41], for which the viability at 10 µM in experiment [1] came to 100%; in experiment [2] it was 89%; in experiment [3], 83%.

Regarding `COc1ccc(Nc2nc(N)nc(-c3ccc(Cl)cc3)n2)cc1` [Compound 42], the figures for the viability at 10 µM in experiment [1], in experiment [2] and in experiment [3] were 85%, 90% and 61%, respectively.

For the compound `Nc1nc(Nc2ccc(OC(F)(F)F)cc2)nc(-c2ccc(Cl)cc2)n1` [Compound 43], the viability at 10 µM is 100% in experiment [1], 83% in experiment [2] and 93% in experiment [3].

As to `CC(C)c1ccc(Nc2nc(N)nc(-c3ccc(Cl)cc3)n2)cc1` [Compound 44], the values for the viability at 10 µM in experiment [1], in experiment [2] and in experiment [3] were 96%, 97% and 100%, respectively.

Regarding `Nc1nc(Nc2cccnc2)nc(-c2ccc(Cl)cc2)n1` [Compound 45], the viability at 10 µM in experiment [1] was found to be 89%; in experiment [2], 74%; in experiment [3] it was 99%.

Turning to `Nc1nc(Nc2ccccc2F)nc(-c2ccc(Br)cc2)n1` [Compound 46], the viability at 10 µM in experiment [1] is 100%; in experiment [2], 91%; in experiment [3], 75%.

For `Nc1nc(Nc2ccc(F)cc2)nc(-c2ccc(Br)cc2)n1` [Compound 47], the viability at 10 µM in experiment [1] was determined as 100%; in experiment [2], 98%; in experiment [3], 58%.

`Nc1nc(Nc2ccccc2Cl)nc(-c2ccc(Br)cc2)n1` [Compound 48]: the viability at 10 µM worked out at 100% in experiment [1], 93% in experiment [2] and 90% in experiment [3].

Take `Nc1nc(Nc2ccc(Cl)cc2)nc(-c2ccc(Br)cc2)n1` [Compound 49]: the figures for the viability at 10 µM in experiment [1], in experiment [2] and in experiment [3] were 100%, 100% and 96%, respectively.

Turning to `Cc1ccc(Nc2nc(N)nc(-c3ccc(Br)cc3)n2)cc1` [Compound 50], the viability at 10 µM amounted to 88% in experiment [1], 93% in experiment [2] and 55% in experiment [3].

As to `COc1ccccc1Nc1nc(N)nc(-c2ccc(Br)cc2)n1` [Compound 51], the values for the viability at 10 µM in experiment [1], in experiment [2] and in experiment [3] were 96%, 89% and 88%, respectively.

Take `COc1ccc(Nc2nc(N)nc(-c3ccc(Br)cc3)n2)cc1` [Compound 52]: the viability at 10 µM in experiment [1] worked out at 100%; in experiment [2], 91%; in experiment [3] it was 56%.

Regarding `Cc1cccc(-c2nc(N)nc(Nc3ccc(F)cc3)n2)c1` [Compound 53, N ^2-(4-Fluorophenyl)-6-(3-methylphenyl)-1,3,5-triazine-2,4-diamine], the viability at 10 µM is 78% in experiment [1], 100% in experiment [2] and 100% in experiment [3].

For `Cc1cccc(-c2nc(N)nc(Nc3ccc(Cl)cc3)n2)c1` [Compound 54], the viability at 10 µM in experiment [1] is 76%; in experiment [2], 93%; in experiment [3], 100%.

As to `Cc1cccc(-c2nc(N)nc(Nc3ccc(Br)cc3)n2)c1` [Compound 55], the viability at 10 µM amounted to 75% in experiment [1], 96% in experiment [2] and 83% in experiment [3].

As for `COc1ccc(Nc2nc(N)nc(-c3cccc(C)c3)n2)cc1` [Compound 57, N ^2-(4-Methoxyphenyl)-6-(3-methylphenyl)-1,3,5-triazine-2,4-diamine], the values for the viability at 10 µM in experiment [1], in experiment [2] and in experiment [3] were 75%, 90% and 91%, respectively.

Turning to `Cc1cccc(-c2nc(N)nc(Nc3ccc(C(C)C)cc3)n2)c1` [Compound 59, N ^2-(4-Isopropylphenyl)-6-(3-methylphenyl)-1,3,5-triazine-2,4-diamine], the viability at 10 µM was determined as 76% in experiment [1], 93% in experiment [2] and 87% in experiment [3].

`Cc1ccc(-c2nc(N)nc(Nc3ccccc3)n2)cc1` [Compound 60]: the viability at 10 µM in experiment [1] is 100%; in experiment [2] it was 100%; in experiment [3] it was 84%.

As to `Cc1ccc(-c2nc(N)nc(Nc3ccc(Br)cc3)n2)cc1` [Compound 63], the viability at 10 µM in experiment [1] is 93%; in experiment [2], 100%; in experiment [3], 87%.

For `Cc1ccc(Nc2nc(N)nc(-c3ccc(C)cc3)n2)cc1` [Compound 64], the values for the viability at 10 µM in experiment [1], in experiment [2] and in experiment [3] were 86%, 92% and 59%, respectively.

Turning to `COc1ccc(Nc2nc(N)nc(-c3ccc(C)cc3)n2)cc1` [Compound 66], the viability at 10 µM in experiment [1] amounted to 100%; in experiment [2], 89%; in experiment [3], 83%.

Consider `Cc1ccc(-c2nc(N)nc(Nc3ccc(OC(F)(F)F)cc3)n2)cc1` [Compound 67], for which the viability at 10 µM in experiment [1] is 93%; in experiment [2], 84%; in experiment [3], 92%.

Consider `Cc1ccc(-c2nc(N)nc(Nc3ccc(C(C)C)cc3)n2)cc1` [Compound 68], for which the viability at 10 µM in experiment [1] worked out at 100%; in experiment [2], 91%; in experiment [3] it was 76%.

On to `Cc1ccc(-c2nc(N)nc(Nc3cccnc3)n2)cc1` [Compound 69], for which the viability at 10 µM in experiment [1] amounted to 88%; in experiment [2], 79%; in experiment [3], 74%.

Take `COc1ccc(-c2nc(N)nc(Nc3ccc(F)cc3)n2)cc1` [Compound 72]: the figures for the viability at 10 µM in experiment [1], in experiment [2] and in experiment [3] were 100%, 100% and 68%, respectively.

Take `COc1ccc(-c2nc(N)nc(Nc3ccc(Cl)cc3)n2)cc1` [Compound 75]: the values for the viability at 10 µM in experiment [1], in experiment [2] and in experiment [3] were 100%, 100% and 99%, respectively.
